“And” between values parts separate entries of the source, which are not always exact repeats. Equal entries are not always repeated.
Assays:
Assay type in all cases: cell-based
centrosomes = experiment: Distance between two centrosomes by fluorescence microscopy; details: 3.0 μmol/L CTR-17
Method: and Lee, 2008). The reversibility of drug effects was carried out as follow: He La cells treated
with CTR-17 or CTR-20 for 12 hours were w ashed twice with 1 × PBS and then releas ed into
pre-w armed complet emedium . Subsequentl y, c ell s were h arvested at scheduled time points to
ex amine their DNA profi les /cell c ycle positions by flow c ytometr y.
Immunofluorescencestai ning was car ried out as d escribed previousl y (Santi and Lee,
2011).Photograph y was carri ed out with a Carl Zeiss 510 Meta l aser s cann ing microscop e or an
Axioscope,and images were captur ed with LSM image examiner (Carl Zeiss, North York, ON,
Canada). For immunostaining , a background cont rol (without secondar y antibody) and bleed-
through controls (cells labeled with each fluorophore separatel y) were used to avoid inaccur ate
interpretation of dat a due to artifacts. A minimum of 10 fields per coverslip and 200 cells for
quantitative cell anal ysis were captur ed. Each ex periment was r epeat ed at l east twice. Western
blotting was carried out as described previousl y (Santi and Lee, 2010).
Molecular Operating Environment (MOE) (Chemi cal Computing Group Inc, Montreal, […]
The best docking pose was determined based on t he minimum free energy for binding. […]
hours or 24hours . The m itotic index was determined b y fluorescence micro scop y with counting […]

SR = experiment: NCI-60 SRB screen
Text: (§1) Supplementary Figure l egend
(§2) 10μ M of CTR-20 was used to examine the drug’s efficac y against the NC I-60 cancer cell li nes including: six leukemia cell lines, nine non- small cell lung cancer cell lines, seven color ect al cancer cell lines, six CNS cancer cell lines, nine melanoma cell lines, seven ovari an can cer cell lines, seven ren al can cer cell lines, two prostate cancer cell lines and six breast cancer cell lines. The scr eenin g was car r ied out b y the US National Cancer Institute (NC I) us i n g a sulforhodamine B (SRB) colorimetric assay. […]
(§3) out by the NC I using five different doses of CTR -20.

HCT-15 = experiment: NCI-60 SRB screen
Text: as §1, §2, §3

M14 = experiment: NCI-60 SRB screen
Text: as §1, §2, §3

OVCAR-8 = experiment: NCI-60 SRB screen
Text: as §1, §2, §3

NCI-H226 = experiment: NCI-60 SRB screen
Text: as §1, §2, §3

[1] = Homo sapiens, read-out: LC50 (the source's name)

Structure (SMILES): COc1ccccc1C(=O)/C=C/c1cc2ccccc2[nH]c1=O [CTR-17, (E)-3-(3-(2-Methoxyphenyl)-3-oxoprop-1-enyl)quinolin-2(1H)-one]
- distance between two centrosomes (centrosomes): 4.83 ± 0.36 µm
- distance between two centrosomes shorter than sham control (centrosomes): ~ 35% and 35%

Structure (SMILES): COc1ccc2[nH]c(=O)c(/C=C/C(=O)c3ccccc3OC)cc2c1 [CTR-20, (E)-6-Methoxy-3-(3-(2-methoxyphenyl)-3-oxoprop-1-enyl) quinolin-2(1H)-one]
- Log10GI50 (SR): -7.18 Molar
- Log10LC50 (SR): > -4.00 Molar
- Log10TGI (SR): -4.99 Molar
- TGI (SR): 1.03E-5 Molar
- Growth Percent (SR; 1.00E-5 Molar): 2.69%
- GI50 (SR; Homo sapiens): 0.0656 µM
- LC50 (50% lethal concentration) (SR; Homo sapiens): > 100 µM
- Percent Growth (SR; Log10 Concentration -4.0): -13%
- Percent Growth (SR; Log10 Concentration -6.0): 21%
- Percent Growth (SR; Log10 Concentration -7.0): 41%
- Percent Growth (SR; Log10 Concentration -8.0): 92%
- Log10GI50 (HCT-15): -6.40 Molar
- Log10LC50 (HCT-15): -5.08 Molar
- Log10TGI (HCT-15): -5.69 Molar
- TGI (HCT-15): 2.05E-6 Molar
- Growth Percent (HCT-15; 1.00E-5 Molar): 11.32%
- GI50 (HCT-15; Homo sapiens): 0.395 µM
- LC50 (HCT-15; Homo sapiens): 8.29 µM
- Percent Growth (HCT-15; Log10 Concentration -4.0): -85%
- Percent Growth (HCT-15; Log10 Concentration -5.0): -57%
- Percent Growth (HCT-15; Log10 Concentration -6.0): 26%
- Percent Growth (HCT-15; Log10 Concentration -7.0): 86%
- Percent Growth (HCT-15; Log10 Concentration -8.0): 95%
- Log10GI50 (M14): -6.56 Molar
- Log10LC50 (M14): -4.62 Molar
- Log10TGI (M14): -5.85 Molar
- TGI (M14): 1.41E-6 Molar
- Growth Percent (M14; 1.00E-5 Molar): 13.82%
- GI50 (M14; Homo sapiens): 0.278 µM
- CC50 (M14; [1]): 24 µM
- Percent Growth (M14; Log10 Concentration -4.0): -93%
- Percent Growth (M14; Log10 Concentration -5.0): -23%
- Percent Growth (M14; Log10 Concentration -6.0): 4%
- Percent Growth (M14; Log10 Concentration -7.0): 87%
- Percent Growth (M14; Log10 Concentration -8.0): 92%
- Log10GI50 (OVCAR-8): -6.06 Molar
- Log10LC50 (OVCAR-8): -4.46 Molar
- Log10TGI (OVCAR-8): -4.94 Molar
- TGI (OVCAR-8): 1.16E-5 Molar
- Growth Percent (OVCAR-8; 1.00E-5 Molar): 1.18%
- GI50 (OVCAR-8; Homo sapiens): 0.874 µM
- CC50 (OVCAR-8; [1]): 34.4 µM
- Percent Growth (OVCAR-8; Log10 Concentration -4.0): -99%
- Percent Growth (OVCAR-8; Log10 Concentration -5.0): 7%
- Percent Growth (OVCAR-8; Log10 Concentration -6.0): 46%
- Percent Growth (OVCAR-8; Log10 Concentration -7.0): 109%
- Percent Growth (OVCAR-8; Log10 Concentration -8.0): 113%
- Log10GI50 (NCI-H226): -5.48 Molar
- Log10LC50 (NCI-H226): > -4.00 Molar
- Log10TGI (NCI-H226): -4.73 Molar
- TGI (NCI-H226): 1.85E-5 Molar
- Growth Percent (NCI-H226; 1.00E-5 Molar): 38.93%
- GI50 (NCI-H226; Homo sapiens): 3.34 µM
- CC50 (NCI-H226; [1]): > 100 µM
- Percent Growth (NCI-H226; Log10 Concentration -4.0): -47%
- Percent Growth (NCI-H226; Log10 Concentration -5.0): 17%
- Percent Growth (NCI-H226; Log10 Concentration -6.0): 86%
- Percent Growth (NCI-H226; Log10 Concentration -7.0): 99%
- Percent Growth (NCI-H226; Log10 Concentration -8.0): 96%

From article PMC5578999, “Novel quinolone chalcones targeting colchicine-binding pocket kill multidrug-resistant cancer cells by inhibiting tubulin activity and MRP1 function” (Scientific Reports, 2017)
